{"source": "paper PMC3873929", "about": "“Cellular Density Effect on RGD Ligand Internalization in Glioblastoma for MRI Application” (PLoS ONE, 2013)", "type_in_all_cases": "cell-based, Human", "key": {"U87 cells [1]": {"system": "U87 cells", "assay": "T1-weighted MRI (2D FLASH) of U87 cells after uptake of contrast agent", "conditions": "U87 cells at 7*10^4 cell/cm^2, 400 µM, 4.7 T, unlabeled cells SNR 60", "method": "E-[c(RGDfK)2]-DOTA-Gd uptake by U87 cells was performed on cells platted at 7.10^4 cells/cm^2. After 24 h, the cells were then incubated for 4 h with 400 µM of E-[c(RGDfK)2]-DOTA-Gd or for 1 h with MnCl2 at 400 µM as positive contrast for the T1-weighted (T1-w) sequence. Then the medium was discarded and the cells were washed with RPMI. The cells were re-suspended at 2.10_6 cells in 100 µL of phosphate buffer saline (PBS) for each condition and mixed with 100 µL of agarose 2% (Sigma-Aldrich).\nMR images of cells trapped in agarose gel were acquired on a 4.7 T Biospec system (Bruker, Ettlingen, Germany). The system was equipped with a 6-cm diameter BG6 gradient system capable of 950 mT/m maximum strength. Imaging was performed with a birdcage resonator (35-mm diameter and 80-mm length) tuned at 200.3 MHz. 2D images were acquired with a T1-w sequence (FLASH sequence, TE/TR: 1,6/14 ms, flip angle: 60°, FOV: 25*25 mm, matrix:128*96, […], total acquisition time: 5 min 44 s)."}, "U87 cells [2]": {"system": "U87 cells", "assay": "Flow cytometry uptake of fluorescent RGD ligands versus cell density", "conditions": "8*10^3 to 10^5 cells/cm^2, 1 h incubation, Alexa Fluor-488 conjugates (E-[c(RGDfK)2] 2 µM; iRGD 15 µM)", "method": "(§1) Uptakes of E-[c(RGDfK)2]-Alexa488 and iRGD-alexa488 by U87 cells were compared for different cellular densities using flow cytometry. Twenty four multiwell plates (Becton-Dickinson, 2 cm^2/well), were pretreated with collagen (Sigma-Aldrich) (10 µg/cm^2). Then the cells were seeded during 24 h either at densities ranging from 8.10^3 to 10^5 cells/cm2 or at three typical densities being in the lowest, the median and the highest values of the previously mentioned density range. The cells were incubated 1 h with the fluorescent RGD ligands (E-[c(RGDfK)2]-Alexa488, 2 µM; iRGD-alexa488, 15 µM). Then the medium was discarded and the cells were washed with Roswell Park Memorial Institute Medium (RPMI, Gibco Corp). Thereafter the cells were re-suspended in RPMI at 100 cells/µl and analyzed by flow cytometry (Guava easyCyte flow cytometer/counter, Millipore, λexc: 488 nm, λem: 525 nm)."}, "U87 cells [3]": {"system": "U87 cells", "assay": "Fluorescence microscopy of sub-cellular location of fluorescent RGD ligands", "method": "Protocols for microscopy were identical to those for flow cytometry. Cells were seeded on glass coverslips after collagen treatment as described above. After the different sets of incubations the cells were washed with RPMI and fixed with paraformaldehyde (4%, 20 min). Nuclei were then labeled with DAPI (0.01 mg/ml). After three washes, the coverslips were mounted on glass slides and observed using a Leica DM5500 B (magnification 63×, λexc: 480 nm, λem: 530 nm and λexc:360 nm λem: 470 nm for alexa fluor-488 and DAPI respectively)."}, "U87 cells [4]": {"system": "U87 cells", "assay": "Flow cytometry uptake with endocytosis pathway inhibitors (nystatin, amiloride, chloroquine)", "conditions": "1 h", "method": "as §1\nThe clathrin-mediated endocytosis and the caveola-dependent endocytosis were characterized by incubations with chloroquine (100 µM) and nystatin (30 µM), respectively. Contribution of macropinocytosis was studied following amiloride treatment (1 mM).\n(§2) All of these inhibitors and drugs were applied on the cells for 1 h simultaneously with the fluorescent RGD ligands. When specified, incubation of drugs begun 20 min before the incubation with the RGD ligands. All the reagents were from Sigma-Aldrich."}, "U87 cells [5]": {"system": "U87 cells", "assay": "Flow cytometry uptake with cytoskeleton drugs (paclitaxel, cytoD, colchicine, nocodazole)", "conditions": "1 h", "method": "as §1\nThe microtubule targeting was performed using paclitaxel (10 µM), colchicin (7.5 µM) and nocodazole (30 µM).\nas §2"}, "U87 cells [6]": {"system": "U87 cells", "assay": "Flow cytometry uptake under different energy substrates and oxidative metabolism inhibitors", "method": "Human GBM cell line U87-MG from the American Type Culture Collection (ATCC, LGC standards, Middlesex, UK) was cultured in Dulbecco's modified eagles medium (DMEM, Gibco Corp) supplemented with 10% fetal calf serum (FCS, Gibco Corp), in a humidified atmosphere with 5% CO2 at 37°C. The characterization of the metabolism contribution was performed with DMEM without glucose and pyruvate (DMEM, Gibco Corp). Glucose or pyruvate were added when necessary at the concentration of 1 g/L and 0.11 g/L , respectively.\nas §1\nThe oxidative metabolism was studied with oligomycine (20 µM) and rotenone (10 µM).\nas §2"}, "U87 cells [7]": {"system": "U87 cells", "assay": "T1-weighted MRI (3D FLASH) of U87 cells seeded at three densities and labeled with RGD-Gd", "conditions": "400 µM", "method": "Seeded at three densities, cells were incubated with E-[c(RGDfK)2]-DOTA-Gd at 400 µM for 4 h. The same protocol to prepare cells trapped in agarose gel was used. 3D images of the RGD internalization were acquired with a T1-w sequence (FLASH sequence, TE/TR: 1,5/12 ms, flip angle: 20°, FOV: 30*25*20 mm, matrix:128*128*64, 6 averages, total acquisition time: 9 min 49 s)."}}, "note": "Several values for one entry are separate records, joined by “and”; a condition that tells them apart may be missing. Equal entries are not always repeated.", "data": [{"molecule": "[Cl][Mn][Cl]", "note": "[MnCl2, reference compound]", "values": [{"measurement": "SNR of labeled U87 cells (T1-w MRI)", "setting": "U87 cells [1]; positive contrast control, 1 h incubation", "result": 100}]}, {"molecule": "CRGDK/RGPD/EC [iRGD-alexa488]", "values": [{"measurement": "Increase of cell labeling (MFI) at the highest densities compared to the lowest", "setting": "U87 cells [2]", "result": 30, "unit": "%"}, {"measurement": "Sub-cellular location of the fluorescent signal", "setting": "U87 cells [3]; 1 h at 37°C, all studied cell densities, no inhibitor (iRGD-alexa488 15 µM)", "result": "most of the signal appeared intracellular"}, {"measurement": "Membrane labeling", "setting": "U87 cells [3]; 1 h at 37°C, no inhibitor (iRGD-alexa488 15 µM)", "result": "undetectable"}, {"measurement": "Fluorescence location in the presence or not of nystatin", "setting": "U87 cells [3]; nystatin (30 µM), data not shown", "result": "inside cytoplasmic vesicles"}, {"measurement": "Sub-cellular location of fluorescence during inhibition of clathrin-mediated endocytosis", "setting": "U87 cells [3]; with chloroquine (100 µM)", "result": "typical cytoplasmic membrane labeling"}, {"measurement": "Effect of macropinocytosis inhibition (amiloride) on internalization", "setting": "U87 cells [4]; amiloride 1 mM", "result": "had no effect"}, {"measurement": "Decrease of uptake after chloroquine treatment, high density", "setting": "U87 cells [4]; chloroquine 100 µM, high density (95000 cell/cm^2 for E-[c(RGDfK)2], 75000 for iRGD), mean ± SEM, n≥3", "result": "53.9%±2.5%"}, {"measurement": "Decrease of uptake after chloroquine treatment, low density", "setting": "U87 cells [4]; chloroquine 100 µM, low density (15000 cell/cm^2 for E-[c(RGDfK)2], 7000 for iRGD), mean ± SEM, n≥3", "result": "42.4%±1.1% and 42%"}, {"measurement": "Decrease of uptake after chloroquine treatment, medium density", "setting": "U87 cells [4]; chloroquine 100 µM, medium density (50000 cell/cm^2 for E-[c(RGDfK)2], 35000 for iRGD), mean ± SEM, n≥3", "result": "48.2±0.2", "unit": "%"}, {"measurement": "Effect of caveolin-dependent endocytosis inhibition (nystatin) on internalization", "setting": "U87 cells [4]; nystatin 30 µM, all studied cell densities", "result": "did not alter"}, {"measurement": "Uptake results after colchicine treatment (strong decrease), high density", "setting": "U87 cells [5]; colchicine 7.5 µM, high density (80000 cell/cm^2 for E-[c(RGDfK)2], 70000 for iRGD), mean ± SEM, n≥3", "result": "54.8%±0.8%"}, {"measurement": "Uptake results after colchicine treatment (strong decrease), low density", "setting": "U87 cells [5]; colchicine 7.5 µM, low density (10000 cell/cm^2), mean ± SEM, n≥3", "result": "55.0%±0.3%"}, {"measurement": "Uptake results after colchicine treatment (strong decrease), medium density", "setting": "U87 cells [5]; colchicine 7.5 µM, medium density (40000 cell/cm^2 for E-[c(RGDfK)2], 35000 for iRGD), mean ± SEM, n≥3", "result": "53.1%±0.1%"}, {"measurement": "cytoD effect on internalization (decrease), high density", "setting": "U87 cells [5]; cytoD 20 µM, high density (80000 cell/cm^2 for E-[c(RGDfK)2], 70000 for iRGD), mean ± SEM, n≥3", "result": "29.0%±2.1%"}, {"measurement": "cytoD effect on internalization (decrease), low density", "setting": "U87 cells [5]; cytoD 20 µM, low density (10000 cell/cm^2), mean ± SEM, n≥3", "result": "29.7%±1.3%"}, {"measurement": "cytoD effect on internalization (decrease), medium density", "setting": "U87 cells [5]; cytoD 20 µM, medium density (35000 cell/cm^2 for iRGD), mean ± SEM, n≥3", "result": "23.5%±1.3%"}, {"measurement": "Effect of paclitaxel (stabilization of polymerized microtubules) on internalization", "setting": "U87 cells [5]; paclitaxel 10 µM", "result": "did not alter"}, {"measurement": "Internalization without glucose and with or without pyruvate (conditions 2 and 3)", "setting": "U87 cells [6]; DMEM without glucose, no oligomycin, remained cell density dependent", "result": "not altered"}, {"measurement": "Internalization with oligomycin in presence of glucose and pyruvate (condition 4)", "setting": "U87 cells [6]; oligomycin 20 µM, glucose 1 g/L, pyruvate 0.11 g/L", "result": "decreased more for the lowest cell densities than for the highest ones"}, {"measurement": "Internalization without glucose in the presence of pyruvate and oligomycin (condition 5)", "setting": "U87 cells [6]; oligomycin 20 µM, regardless of the cell density", "result": "strong inhibition"}, {"measurement": "Internalization with rotenone compared with oligomycin", "setting": "U87 cells [6]; rotenone 10 µM, data not shown", "result": "comparable"}]}, {"molecule": "E-[c(RGDfK)2]-DOTA-Gd (bicyclic or more) [RGD-gadolinium chelate made by mixing E-[c(RGDfK)2]-DOTA with GdCl2; MRI contrast agent]", "values": [{"measurement": "SNR of labeled U87 cells (T1-w MRI)", "setting": "U87 cells [1]; 4 h incubation", "result": 70}, {"measurement": "SNR values for low, medium and high density compared with each other", "setting": "U87 cells [7]", "result": "not significantly different"}, {"measurement": "SNR of the different cell densities compared with SNR of control", "setting": "U87 cells [7]; p<0.05", "result": "significantly higher"}, {"measurement": "SNR (T1-w MRI), highest cell density", "setting": "U87 cells [7]; highest density, 4 h, 3D FLASH 4.7 T", "result": 16.5}]}]}
